Laboratory results from the NIST ThermoML archive (doi:10.1016/j.jct.2008.12.014).
± gives the expanded uncertainty stated by the source.

Conditions: Liquid, Vibrating tube method

CC(C)O [propan-2-ol]
Conditions	mass density [kg/m3]
280.21 K, 117.9 kPa	797.61 ± 0.15
280.21 K, 439.6 kPa	797.89 ± 0.15
280.21 K, 938.7 kPa	798.29 ± 0.16
280.21 K, 1328.4 kPa	798.62 ± 0.16
280.21 K, 1656.6 kPa	798.89 ± 0.16
280.21 K, 1944.9 kPa	799.14 ± 0.17
280.21 K, 2440.6 kPa	799.56 ± 0.17
280.21 K, 2850.6 kPa	799.88 ± 0.18
280.21 K, 3198 kPa	800.17 ± 0.18
280.21 K, 3679.1 kPa	800.56 ± 0.18
280.21 K, 4071.1 kPa	800.9 ± 0.19
280.21 K, 4437.7 kPa	801.19 ± 0.19
280.21 K, 4832.6 kPa	801.5 ± 0.19
280.21 K, 5182.1 kPa	801.8 ± 0.2
280.21 K, 5559.1 kPa	802.1 ± 0.2
280.21 K, 5910 kPa	802.39 ± 0.2
280.21 K, 6334.9 kPa	802.73 ± 0.21
280.21 K, 6750.9 kPa	803.06 ± 0.21
280.21 K, 7592 kPa	803.74 ± 0.22
280.21 K, 7999 kPa	804.07 ± 0.22
280.21 K, 8329 kPa	804.33 ± 0.23
280.21 K, 8817 kPa	804.7 ± 0.23
280.21 K, 9350.6 kPa	805.11 ± 0.24
280.21 K, 9658.5 kPa	805.38 ± 0.24
281.21 K, 7166.5 kPa	803.39 ± 0.22
300.09 K, 186.7 kPa	780.22 ± 0.16
300.09 K, 610.5 kPa	780.62 ± 0.16
300.09 K, 953.4 kPa	780.94 ± 0.17
300.09 K, 1339.5 kPa	781.31 ± 0.17
300.09 K, 1722.1 kPa	781.66 ± 0.18
300.09 K, 2044.8 kPa	781.96 ± 0.18
300.09 K, 2446.4 kPa	782.34 ± 0.18
300.09 K, 2834.6 kPa	782.7 ± 0.19
300.09 K, 3224.9 kPa	783.06 ± 0.19
300.09 K, 3671.1 kPa	783.47 ± 0.2
300.09 K, 4074.1 kPa	783.84 ± 0.2
300.09 K, 4362.5 kPa	784.11 ± 0.2
300.09 K, 4771.8 kPa	784.48 ± 0.21
300.09 K, 5226.5 kPa	784.89 ± 0.21
300.09 K, 5579.2 kPa	785.21 ± 0.21
300.09 K, 6001.6 kPa	785.59 ± 0.22
300.09 K, 6427.2 kPa	785.98 ± 0.22
300.09 K, 6780.3 kPa	786.29 ± 0.23
300.09 K, 7214.7 kPa	786.68 ± 0.23
300.09 K, 7629.9 kPa	787.05 ± 0.23
300.09 K, 8020.3 kPa	787.4 ± 0.24
300.09 K, 8417.5 kPa	787.75 ± 0.24
300.09 K, 8805.7 kPa	788.1 ± 0.25
300.09 K, 9212.9 kPa	788.45 ± 0.25
300.09 K, 9621.5 kPa	788.81 ± 0.25
325.12 K, 202.7 kPa	757.05 ± 0.17
325.12 K, 609.4 kPa	757.49 ± 0.18
325.12 K, 960 kPa	757.87 ± 0.18
325.12 K, 1253.9 kPa	758.21 ± 0.18
325.12 K, 1638.8 kPa	758.63 ± 0.19
325.12 K, 2021 kPa	759.06 ± 0.19
325.12 K, 2328.8 kPa	759.39 ± 0.2
325.12 K, 3014.9 kPa	760.15 ± 0.2
325.12 K, 3321.4 kPa	760.48 ± 0.21
325.12 K, 3659.4 kPa	760.85 ± 0.21
325.12 K, 4004.1 kPa	761.22 ± 0.21
325.12 K, 4399.2 kPa	761.65 ± 0.22
325.12 K, 4691.2 kPa	761.97 ± 0.22
325.12 K, 5010.7 kPa	762.32 ± 0.23
325.12 K, 5383.4 kPa	762.71 ± 0.23
325.12 K, 5730.5 kPa	763.08 ± 0.23
325.12 K, 6143.6 kPa	763.52 ± 0.24
325.12 K, 6525.6 kPa	763.91 ± 0.24
325.12 K, 6903.2 kPa	764.31 ± 0.25
325.12 K, 7293.8 kPa	764.72 ± 0.25
325.12 K, 7661.9 kPa	765.11 ± 0.25
325.12 K, 7918.6 kPa	765.38 ± 0.26
325.12 K, 8254.4 kPa	765.72 ± 0.26
325.12 K, 8755.5 kPa	766.24 ± 0.27
325.15 K, 2655.8 kPa	759.75 ± 0.2
350.14 K, 220.4 kPa	731.92 ± 0.18
350.14 K, 663.4 kPa	732.49 ± 0.19
350.14 K, 1071.2 kPa	733.03 ± 0.19
350.14 K, 1412.6 kPa	733.49 ± 0.2
350.14 K, 1844.7 kPa	734.07 ± 0.2
350.14 K, 2226.7 kPa	734.58 ± 0.21
350.14 K, 2644.7 kPa	735.11 ± 0.21
350.14 K, 2842.7 kPa	735.41 ± 0.22
350.14 K, 3286.9 kPa	735.99 ± 0.22
350.14 K, 3630.7 kPa	736.45 ± 0.23
350.14 K, 4012.2 kPa	736.94 ± 0.23
350.14 K, 4394.6 kPa	737.43 ± 0.24
350.14 K, 4757.6 kPa	737.91 ± 0.24
350.14 K, 5197.9 kPa	738.48 ± 0.25
350.14 K, 5577.9 kPa	738.96 ± 0.25
350.14 K, 5939.3 kPa	739.42 ± 0.25
350.14 K, 6321.3 kPa	739.89 ± 0.26
350.14 K, 6730.9 kPa	740.41 ± 0.26
350.14 K, 7119.7 kPa	740.89 ± 0.27
350.14 K, 7564.4 kPa	741.45 ± 0.27
350.14 K, 7988.5 kPa	741.97 ± 0.28
350.14 K, 8472.5 kPa	742.55 ± 0.28
350.14 K, 8925.8 kPa	743.13 ± 0.29
350.14 K, 9280.8 kPa	743.56 ± 0.29
350.14 K, 9676.3 kPa	744.05 ± 0.3
375.01 K, 349.5 kPa	702.23 ± 0.2
375.01 K, 703.3 kPa	702.82 ± 0.21
375.01 K, 1046.8 kPa	703.38 ± 0.21
375.01 K, 1437.5 kPa	704.01 ± 0.22
375.01 K, 1791.6 kPa	704.58 ± 0.22
375.01 K, 2161.7 kPa	705.16 ± 0.23
375.01 K, 2545.7 kPa	705.76 ± 0.23
375.01 K, 2909.9 kPa	706.34 ± 0.24
375.01 K, 3364.1 kPa	707.04 ± 0.24
375.01 K, 3677.6 kPa	707.53 ± 0.25
375.01 K, 4083.2 kPa	708.16 ± 0.25
375.01 K, 4515.7 kPa	708.82 ± 0.26
375.01 K, 4853.5 kPa	709.33 ± 0.26
375.01 K, 5280.2 kPa	709.98 ± 0.27
375.01 K, 5646.9 kPa	710.53 ± 0.27
375.01 K, 6138.1 kPa	711.26 ± 0.28
375.01 K, 6447.1 kPa	711.73 ± 0.28
375.01 K, 6880.9 kPa	712.37 ± 0.29
375.01 K, 7269.8 kPa	712.94 ± 0.3
375.01 K, 7772.4 kPa	713.68 ± 0.3
375.01 K, 8119.2 kPa	714.18 ± 0.31
375.01 K, 8557.2 kPa	714.81 ± 0.31
375.01 K, 8987.3 kPa	715.42 ± 0.32
375.01 K, 9423.8 kPa	716.04 ± 0.32
375.01 K, 9842.2 kPa	716.64 ± 0.33
392.57 K, 407.6 kPa	679.26 ± 0.22
392.57 K, 888.7 kPa	680.18 ± 0.22
392.57 K, 1171.4 kPa	680.72 ± 0.23
392.57 K, 1526.6 kPa	681.39 ± 0.23
392.57 K, 1897.4 kPa	682.08 ± 0.24
392.57 K, 2272.3 kPa	682.77 ± 0.24
392.57 K, 2619.1 kPa	683.41 ± 0.25
392.57 K, 3050.4 kPa	684.2 ± 0.25
392.57 K, 3411.2 kPa	684.86 ± 0.26
392.57 K, 3835 kPa	685.63 ± 0.27
392.57 K, 4095.7 kPa	686.12 ± 0.27
392.57 K, 4524.9 kPa	686.89 ± 0.28
392.57 K, 4902.8 kPa	687.57 ± 0.28
392.57 K, 5283.5 kPa	688.24 ± 0.29
392.57 K, 5775.9 kPa	689.09 ± 0.29
392.57 K, 6039.6 kPa	689.55 ± 0.3
392.57 K, 6476.6 kPa	690.3 ± 0.3
392.57 K, 6889.7 kPa	691.01 ± 0.31
392.57 K, 7348 kPa	691.78 ± 0.32
392.57 K, 7728 kPa	692.42 ± 0.32
392.57 K, 8172.7 kPa	693.17 ± 0.33
392.57 K, 8598.3 kPa	693.88 ± 0.33
392.57 K, 9018.5 kPa	694.57 ± 0.34
392.57 K, 9405 kPa	695.2 ± 0.34
392.57 K, 9837.9 kPa	695.89 ± 0.35
